# According to paper PMC8619046, “ABCB1 and ABCG2 Control Brain Accumulation and Intestinal Disposition of the Novel ROS1/TRK/ALK Inhibitor Repotrectinib, While OATP1A/1B, ABCG2, and CYP3A Limit Its Oral Availability” (Pharmaceutics, 2021):
# Values joined by “and” are separate entries in the source; they are usually repeats but may differ in a detail not shown here. Equal entries are not always repeated. Where two headings read alike, the source gives them in different places.
# Assays:
# [1] = 4-h oral plasma pharmacokinetics and tissue distribution, male wild-type and Oatp1a/1b−/− mice; format: in vivo; conditions: 10 mg/kg oral; for Tmax: Table S2, median (range); for Fold change Cliver / Fold change SIC (% of dose) / Fold change ratio (SIC (%)-to-plasma) / Fold change ratio (brain-to-plasma) / Fold change ratio (liver-to-plasma) / Fold change ratio (testis-to-plasma) / Fold increase Cbrain / Fold increase Ctestis / Fold increase AUC0-4h: vs wild-type; for Kp at 4 h / concentration at 4 h / Cmax / AUC(0-t): male, po; for AUC(0-t): read-out: AUC0-4h
# Excerpt: (§1) Mice with similar average ages (and body weights) were randomly allocated in experimental groups as far as possible. Mice were maintained in a temperature-controlled and specific pathogen-free environment with a 12-h light and 12-h dark cycle and they received a standard diet (Transbreed, SDS Diets, Technilab-BMI, Someren, The Netherlands) and acidified water ad libitum. […] Given the objective main readout (repotrectinib plasma and tissue concentrations as measured by LC-MS/MS), no blinding method was applied.
# (§2) Repotrectinib was dissolved in dimethyl sulfoxide (DMSO) at a concentration of 50 mg/mL. This stock solution was first diluted 3-fold with ethanol/polysorbate 80 (1/1; v/v), followed by further dilution with a 10 mM hydrochloric acid solution, yielding a dosing solution of 1 mg/mL, freshly prepared on the day of experiment. Final concentrations of the solvents in the administration solution were: 2%, 2%, 2%, and 94% (all v/v) for DMSO, ethanol, polysorbate 80, and 10 mM hydrochloric acid solution, respectively.
# (§3) To minimize variation in absorption upon oral administration, mice were fasted for 2–3 h before repotrectinib (10 mg/kg body weight) was administered by gavage into the stomach at 10 µL/g body weight, with a blunt-ended needle. Tail vein serial blood samples were collected at 0.125, 0.25, 0.5, 1, 2 and 4 h using heparinized capillary tubes (Sarstedt, Nümbrecht, Germany) for the 8-h experiments. For the 4- and 2-h experiments, blood samplings were performed from the tail vein with the same schedule, but terminated at 2 and 1 h, respectively. Eight, four, or two hours after oral administration, mice were deeply anesthetized with 2–3% isoflurane, followed by cardiac puncture to collect blood in Eppendorf tubes containing heparin as an anticoagulant. Brain, liver, spleen, kidney, lung, small intestine, and testis were rapidly collected after sacrificing the mice by cervical dislocation. The small intestinal contents (SIC) were separated from small intestinal tissue (SI), which was flushed and rinsed with cold saline to remove any residual feces. Brain, liver, spleen, kidney, lung, SI, SIC, and testis were homogenized with 1, 3, 1, 2, 1, 3, 2, and 1 mL of 2% BSA (w/v), respectively. Plasma fraction was isolated from blood by centrifugation at 9000× g for 6 min at 4 °C. All samples were stored at −30 °C until analysis.
# (§4) A sensitive and specific liquid chromatography-tandem mass spectrometry method using protein precipitation pre-treatment was adopted to quantify the concentration of repotrectinib in DMEM medium, plasma samples and tissue homogenates.
# (§5) A non-compartmental model using the PKSolver add-in program for Microsoft Excel was adopted to calculate the pharmacokinetic parameters of repotrectinib. Oral availability was assessed by the plasma area under the curve (AUC), calculated using repotrectinib plasma concentration-time curves with the linear trapezoidal rule without extrapolating the infinity. Statistical testing was performed in Graphpad Prism7 (Graphpad Software, La Jolla, CA, USA). All data are presented as geometric means ± SD. Heteroscedastic data were log-transformed before applying statistical analysis. When differences between two groups were compared, the two-sided unpaired Student’s t test was used. One-way analysis of variance (ANOVA) was applied when multiple groups were compared, and the Bonferroni post hoc correction was used to accommodate multiple testing. Differences were considered statistically significant when P < 0.05.
# [2] = 2-h oral plasma pharmacokinetics and tissue distribution, male wild-type and Oatp1a/1b−/− mice; format: in vivo; conditions: 10 mg/kg oral; for concentration at 2 h / Cmax / AUC(0-t) / Tmax / Kp at 2 h: mouse; for Cmax / AUC(0-t) / Tmax: plasma; for AUC(0-t): read-out: AUC0–2h; for Tmax: median (range); for Fold change (SIWC % of dose) / Fold change ratio (SIWC (%)-to-AUC0–2h) / Fold change ratio (SIWC (%)-to-plasma) / Fold change ratio (liver-to-plasma) / Fold increase CSIWC / Fold increase Cliver / Fold increase AUC0–2h: vs wild-type; for Kp at 2 h: male, po, read-out: Liver-to-plasma ratio
# Excerpt: as §1, §2, §3, §4, §5
# [3] = Table S2, male Oatp1a/1b−/− mice
# [4] = male Oatp1a/1b−/− mice vs wild-type
# [5] = FVB, mouse, plasma, 10 mg/kg, Table S2, male Oatp1a/1b−/− mice
# [6] = FVB, mouse, plasma, 10 mg/kg, Table S2, male wild-type mice
# [7] = Oatp1a/1b−/− (>99% FVB background), male Oatp1a/1b−/− mice
# [8] = wild-type (>99% FVB background), male wild-type mice
smiles,measurement,setting,value
C[C@H]1CNC(=O)c2cnn3ccc(nc23)N[C@H](C)c2cc(F)ccc2O1 [repotrectinib],Tmax,"[1]; FVB, mouse, plasma, male wild-type mice, read-out: Tmax",30 min
same,SIC (% of dose),[1]; [3],8.52 ± 3.80 % of dose
same,SIC (%)-to-plasma ratio,[1]; [3],5.81 ± 2.09 *10-3
same,Fold change Cliver,[1]; [3],0.94
same,Fold change SIC (% of dose),[1]; [3],1.53
same,Fold change ratio (SIC (%)-to-plasma),[1]; [3],0.66
same,Fold change ratio (brain-to-plasma),[1]; [3],1.20
same,Fold change ratio (liver-to-plasma),[1]; [3],0.41
same,Fold change ratio (testis-to-plasma),[1]; [3],0.79
same,Fold increase Cbrain,[1]; [3],2.71
same,Fold increase Ctestis,[1]; [3],1.70
same,Fold increase AUC0-4h,"[1]; Table S2, male Oatp1a/1b−/− mice, 10 mg/kg",2.02 and 2
same,SIC (% of dose),"[1]; Table S2, male wild-type mice",5.56 ± 1.34 % of dose
same,SIC (%)-to-plasma ratio,"[1]; Table S2, male wild-type mice",8.79 ± 2.41 *10-3
same,Fold change Cliver,"[1]; Table S2, male wild-type mice",1.00
same,Fold change SIC (% of dose),"[1]; Table S2, male wild-type mice",1.00
same,Fold change ratio (SIC (%)-to-plasma),"[1]; Table S2, male wild-type mice",1.00
same,Fold change ratio (brain-to-plasma),"[1]; Table S2, male wild-type mice",1.00
same,Fold change ratio (liver-to-plasma),"[1]; Table S2, male wild-type mice",1.00
same,Fold change ratio (testis-to-plasma),"[1]; Table S2, male wild-type mice",1.00
same,Fold increase AUC0-4h,"[1]; Table S2, male wild-type mice",1.00
same,Fold increase Cbrain,"[1]; Table S2, male wild-type mice",1.00
same,Fold increase Ctestis,"[1]; Table S2, male wild-type mice",1.00
same,Tmax,[1]; male Oatp1a/1b−/− mice,0.5 (0.25-1) h
same,"liver-to-plasma ratio, fold decrease",[1]; [4],2.5 fold
same,Kp at 4 h,"[1]; FVB, mouse, brain, 10 mg/kg, Table S2, male Oatp1a/1b−/− mice, read-out: Brain-to-plasma ratio",0.18 ± 0.04
same,concentration at 4 h,"[1]; FVB, mouse, brain, 10 mg/kg, Table S2, male Oatp1a/1b−/− mice, read-out: Cbrain",258 ± 31 ng/g
same,Kp at 4 h,"[1]; FVB, mouse, brain, 10 mg/kg, Table S2, male wild-type mice, read-out: Brain-to-plasma ratio",0.15 ± 0.03
same,concentration at 4 h,"[1]; FVB, mouse, brain, 10 mg/kg, Table S2, male wild-type mice, read-out: Cbrain",95.1 ± 23.5 ng/g
same,concentration at 4 h,"[1]; FVB, mouse, liver, 10 mg/kg, Table S2, male Oatp1a/1b−/− mice, read-out: Cliver",6240 ± 1400 ng/g
same,Kp at 4 h,"[1]; FVB, mouse, liver, 10 mg/kg, Table S2, male Oatp1a/1b−/− mice, read-out: Liver-to-plasma ratio",4.3 ± 0.5
same,concentration at 4 h,"[1]; FVB, mouse, liver, 10 mg/kg, Table S2, male wild-type mice, read-out: Cliver",6630 ± 1160 ng/g
same,Kp at 4 h,"[1]; FVB, mouse, liver, 10 mg/kg, Table S2, male wild-type mice, read-out: Liver-to-plasma ratio",10.5 ± 1.9
same,Cmax,[1]; [5],5070 ± 590 ng/mL
same,AUC(0-t),[1]; [5],14100 ± 1530 ng·h/mL
same,Cmax,[1]; [6],3080 ± 1440 ng/mL
same,AUC(0-t),[1]; [6],6990 ± 2460 ng·h/mL
same,concentration at 4 h,"[1]; FVB, mouse, testis, 10 mg/kg, Table S2, male Oatp1a/1b−/− mice, read-out: Ctestis",264 ± 37 ng/g
same,Kp at 4 h,"[1]; FVB, mouse, testis, 10 mg/kg, Table S2, male Oatp1a/1b−/− mice, read-out: Testis-to-plasma ratio",0.19 ± 0.05
same,concentration at 4 h,"[1]; FVB, mouse, testis, 10 mg/kg, Table S2, male wild-type mice, read-out: Ctestis",155 ± 55 ng/g
same,Kp at 4 h,"[1]; FVB, mouse, testis, 10 mg/kg, Table S2, male wild-type mice, read-out: Testis-to-plasma ratio",0.24 ± 0.07
same,concentration at 2 h,"[2]; FVB, small intestine with content, male wild-type mice, read-out: CSIWC",84700 ± 24100 ng/g
same,concentration at 2 h,"[2]; Oatp1a/1b−/− (>99% FVB background), liver, male Oatp1a/1b−/− mice, read-out: Cliver",15300 ± 1600 ng/g
same,Cmax,[2]; [7],5380 ± 520 ng/mL
same,AUC(0-t),[2]; [7],8960 ± 770 ng·h/mL
same,Tmax,[2]; [7],30 min
same,concentration at 2 h,"[2]; Oatp1a/1b−/− (>99% FVB background), small intestine with content, male Oatp1a/1b−/− mice, read-out: CSIWC",121000 ± 29200 ng/g
same,"liver-to-plasma ratio, fold reduction",[2]; [4],2.3 fold
same,"relative intestinal (SIWC) recovery corrected for plasma concentration, fold decrease",[2]; [4],2.8 fold
same,"relative intestinal (SIWC) recovery corrected for plasma exposure (AUC0–2h), fold decrease",[2]; [4],1.9 fold
same,SIWC (% of dose),[2]; male Oatp1a/1b−/− mice,21.3 ± 3.7 % of dose
same,SIWC (%)-to-AUC0–2h ratio,[2]; male Oatp1a/1b−/− mice,2.40 ± 0.54 *** ·10^−3
same,SIWC (%)-to-plasma ratio,[2]; male Oatp1a/1b−/− mice,5.58 ± 1.09 *** ·10^−3
same,Fold change (SIWC % of dose),[2]; male Oatp1a/1b−/− mice,1.22
same,Fold change ratio (SIWC (%)-to-AUC0–2h),[2]; male Oatp1a/1b−/− mice,0.52
same,Fold change ratio (SIWC (%)-to-plasma),[2]; male Oatp1a/1b−/− mice,0.35
same,Fold change ratio (liver-to-plasma),[2]; male Oatp1a/1b−/− mice,0.44
same,Fold increase CSIWC,[2]; male Oatp1a/1b−/− mice,1.43
same,Fold increase Cliver,[2]; male Oatp1a/1b−/− mice,1.55
same,Fold increase AUC0–2h,"[2]; male Oatp1a/1b−/− mice, 10 mg/kg",2.3 and 2.29
same,SIWC (% of dose),[2]; male wild-type mice,17.4 ± 5.6 % of dose
same,SIWC (%)-to-AUC0–2h ratio,[2]; male wild-type mice,4.59 ± 1.04 ·10^−3
same,SIWC (%)-to-plasma ratio,[2]; male wild-type mice,15.8 ± 3.9 ·10^−3
same,Fold change (SIWC % of dose),[2]; male wild-type mice,1.00
same,Fold change ratio (SIWC (%)-to-AUC0–2h),[2]; male wild-type mice,1.00
same,Fold change ratio (SIWC (%)-to-plasma),[2]; male wild-type mice,1.00
same,Fold change ratio (liver-to-plasma),[2]; male wild-type mice,1.00
same,Fold increase AUC0–2h,[2]; male wild-type mice,1.00
same,Fold increase CSIWC,[2]; male wild-type mice,1.00
same,Fold increase Cliver,[2]; male wild-type mice,1.00
same,Kp at 2 h,"[2]; FVB, liver, 10 mg/kg, male Oatp1a/1b−/− mice",4 ± 0.54
same,Kp at 2 h,"[2]; FVB, liver, 10 mg/kg, male wild-type mice",9.16 ± 1.53
same,concentration at 2 h,"[2]; wild-type (>99% FVB background), liver, male wild-type mice, read-out: Cliver",9840 ± 1160 ng/g
same,Cmax,[2]; [8],2640 ± 990 ng/mL
same,AUC(0-t),[2]; [8],3920 ± 1290 ng·h/mL
same,Tmax,[2]; [8],30 min
